Experiments:
[1] = biological target: T1, eukaryotic translation elongation factor 1 alpha 1 (eEF1A1) (Homo sapiens, UniProt P68104); assay: SPR; format: binding
T1 sequence (P68104 2-462): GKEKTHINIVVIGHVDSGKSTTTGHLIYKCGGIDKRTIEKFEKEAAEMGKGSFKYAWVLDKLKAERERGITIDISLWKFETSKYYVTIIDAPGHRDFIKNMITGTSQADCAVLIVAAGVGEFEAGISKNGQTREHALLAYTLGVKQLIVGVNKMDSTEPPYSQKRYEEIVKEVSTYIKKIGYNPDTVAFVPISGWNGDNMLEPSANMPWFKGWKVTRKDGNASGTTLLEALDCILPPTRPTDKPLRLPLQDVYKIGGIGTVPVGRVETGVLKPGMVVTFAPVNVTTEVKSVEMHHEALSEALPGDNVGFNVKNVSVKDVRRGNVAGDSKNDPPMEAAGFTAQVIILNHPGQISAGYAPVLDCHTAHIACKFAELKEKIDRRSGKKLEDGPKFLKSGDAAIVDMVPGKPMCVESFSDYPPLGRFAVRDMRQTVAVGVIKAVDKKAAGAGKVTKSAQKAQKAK

[2] = biological target: T2, peroxiredoxin 3 (PRDX3) (Homo sapiens, UniProt P30048); assay: SPR; format: binding
T2 sequence (P30048 62-256): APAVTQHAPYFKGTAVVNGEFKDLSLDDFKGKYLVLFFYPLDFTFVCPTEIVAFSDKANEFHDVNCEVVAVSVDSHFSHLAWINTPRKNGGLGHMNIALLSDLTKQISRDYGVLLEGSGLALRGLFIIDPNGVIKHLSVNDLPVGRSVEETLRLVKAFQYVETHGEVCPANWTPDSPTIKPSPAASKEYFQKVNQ

[3] = biological target: T3, vacuolar protein sorting 4 homolog B (VPS4B) (Homo sapiens, UniProt O75351); assay: SPR; format: binding
T3 sequence (O75351 1-444): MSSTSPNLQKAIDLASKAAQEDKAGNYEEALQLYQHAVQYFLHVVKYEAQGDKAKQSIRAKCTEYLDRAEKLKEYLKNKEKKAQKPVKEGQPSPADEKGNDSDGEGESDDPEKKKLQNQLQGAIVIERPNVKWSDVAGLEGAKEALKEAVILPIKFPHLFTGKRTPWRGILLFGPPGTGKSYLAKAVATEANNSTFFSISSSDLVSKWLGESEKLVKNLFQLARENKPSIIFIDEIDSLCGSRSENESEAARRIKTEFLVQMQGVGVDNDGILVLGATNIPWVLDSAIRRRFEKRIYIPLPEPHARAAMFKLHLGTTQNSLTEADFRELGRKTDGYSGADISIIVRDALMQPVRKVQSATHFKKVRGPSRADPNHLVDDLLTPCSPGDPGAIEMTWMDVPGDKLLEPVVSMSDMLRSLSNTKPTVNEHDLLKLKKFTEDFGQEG

[4] = biological target: EIF2AK2 (Homo sapiens, UniProt P19525); assay: biochemical
Sequence of EIF2AK2 (P19525 2-551): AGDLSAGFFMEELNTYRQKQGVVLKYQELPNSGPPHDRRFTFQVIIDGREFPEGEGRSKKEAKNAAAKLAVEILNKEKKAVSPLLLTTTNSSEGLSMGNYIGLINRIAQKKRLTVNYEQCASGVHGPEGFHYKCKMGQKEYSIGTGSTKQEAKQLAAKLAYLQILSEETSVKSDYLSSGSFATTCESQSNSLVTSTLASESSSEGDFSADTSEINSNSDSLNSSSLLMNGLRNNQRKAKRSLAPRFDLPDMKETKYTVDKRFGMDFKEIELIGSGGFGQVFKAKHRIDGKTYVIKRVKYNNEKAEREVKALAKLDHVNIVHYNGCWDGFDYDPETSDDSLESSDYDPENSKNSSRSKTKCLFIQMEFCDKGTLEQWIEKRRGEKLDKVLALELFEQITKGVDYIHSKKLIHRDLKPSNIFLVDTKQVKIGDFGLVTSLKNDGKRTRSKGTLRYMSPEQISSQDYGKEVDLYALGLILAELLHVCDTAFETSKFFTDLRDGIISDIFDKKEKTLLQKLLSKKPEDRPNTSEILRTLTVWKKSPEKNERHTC

Which Kd [1] does the source give for COc1ccc2cc3[n+](cc2c1OC)CCc1cc2c(cc1-3)OCO2 [BBR, berberine] here?
The Kd was 13.4 µM.

What about the Kd [2] of the same compound?
Its Kd is 23.7 µM.

And the Kd [3]?
The Kd was 16.8 µM.

How did the IC50 [4] turn out when O=C1Nc2ccc3ncsc3c2/C1=C/c1c[nH]cn1 [C16] was run?
The IC50 was 1.01 µM.

From article PMC10213791 (Acta Pharmaceutica Sinica. B, 2022)
